Experimental data reported in the NIST ThermoML archive (doi:10.1021/je900210h).
± gives the expanded uncertainty stated by the source.

Settings: Fluid (supercritical or subcritical phases), Coaxial cylinder method

FCC(F)(F)F [1,1,1,2-tetrafluoroethane]
Settings | thermal conductivity [W/m/K]
377.87 K, 4339 kPa | 0.0617 ± 0.0025
377.87 K, 4470 kPa | 0.0614 ± 0.0024
377.87 K, 4479 kPa | 0.0606 ± 0.0025
377.89 K, 4330 kPa | 0.0583 ± 0.0025
377.89 K, 4518 kPa | 0.0587 ± 0.0024
377.89 K, 4531 kPa | 0.0582 ± 0.0023
377.9 K, 4541 kPa | 0.0575 ± 0.0024
377.9 K, 4551 kPa | 0.057 ± 0.002
377.9 K, 4561 kPa | 0.0566 ± 0.0023
377.9 K, 4582 kPa | 0.0563 ± 0.0023
377.91 K, 4321 kPa | 0.0557 ± 0.0025
377.93 K, 4309 kPa | 0.0521 ± 0.0021
377.93 K, 4800 kPa | 0.0547 ± 0.0022
377.93 K, 4851 kPa | 0.0547 ± 0.0022
377.95 K, 4301 kPa | 0.0503 ± 0.0024
377.96 K, 6000 kPa | 0.0569 ± 0.0023
377.97 K, 4302 kPa | 0.0487 ± 0.0075
378.02 K, 4500 kPa | 0.0601 ± 0.0025
378.05 K, 7003 kPa | 0.0589 ± 0.0023
378.07 K, 180 kPa | 0.02003 ± 0.0012
378.07 K, 6502 kPa | 0.058 ± 0.002
378.11 K, 5504 kPa | 0.056 ± 0.002
378.16 K, 8004 kPa | 0.0605 ± 0.0024
378.18 K, 7450 kPa | 0.0597 ± 0.0024
378.24 K, 10507 kPa | 0.064 ± 0.003
378.25 K, 4395 kPa | 0.0667 ± 0.0026
378.25 K, 4400 kPa | 0.0667 ± 0.0026
378.25 K, 9919 kPa | 0.0632 ± 0.0025
378.25 K, 21005 kPa | 0.0736 ± 0.0028
378.26 K, 4380 kPa | 0.0657 ± 0.0031
378.26 K, 4390 kPa | 0.0664 ± 0.003
378.26 K, 4410 kPa | 0.0667 ± 0.0026
378.26 K, 4420 kPa | 0.0661 ± 0.0026
378.26 K, 4430 kPa | 0.0655 ± 0.0026
378.26 K, 9506 kPa | 0.0627 ± 0.0025
378.27 K, 4370 kPa | 0.0645 ± 0.0031
378.27 K, 4440 kPa | 0.0645 ± 0.0025
378.27 K, 4450 kPa | 0.0639 ± 0.0025
378.27 K, 4460 kPa | 0.0633 ± 0.0025
378.27 K, 9008 kPa | 0.062 ± 0.003
378.27 K, 18500 kPa | 0.0716 ± 0.0028
378.28 K, 4360 kPa | 0.0622 ± 0.003
378.28 K, 4470 kPa | 0.0625 ± 0.0025
378.28 K, 4480 kPa | 0.0616 ± 0.0024
378.29 K, 4350 kPa | 0.0597 ± 0.0028
378.29 K, 4490 kPa | 0.0611 ± 0.0024
378.29 K, 4500 kPa | 0.0608 ± 0.0024
378.29 K, 4510 kPa | 0.0603 ± 0.0024
378.29 K, 4520 kPa | 0.0601 ± 0.0024
378.29 K, 4530 kPa | 0.0598 ± 0.0024
378.29 K, 8408 kPa | 0.0612 ± 0.0024
378.29 K, 16500 kPa | 0.0701 ± 0.0027
378.3 K, 4540 kPa | 0.0595 ± 0.0024
378.3 K, 4550 kPa | 0.0593 ± 0.0024
378.3 K, 4570 kPa | 0.0588 ± 0.0024
378.3 K, 4590 kPa | 0.0585 ± 0.0023
378.31 K, 4340 kPa | 0.057 ± 0.003
378.31 K, 4620 kPa | 0.0581 ± 0.0023
378.31 K, 4626 kPa | 0.0578 ± 0.0023
378.31 K, 4650 kPa | 0.0573 ± 0.0023
378.31 K, 4688 kPa | 0.0571 ± 0.0023
378.31 K, 4730 kPa | 0.0569 ± 0.0023
378.31 K, 14505 kPa | 0.0683 ± 0.0026
378.32 K, 4770 kPa | 0.0567 ± 0.0023
378.33 K, 4330 kPa | 0.0547 ± 0.0024
378.33 K, 13441 kPa | 0.0674 ± 0.0026
378.34 K, 12420 kPa | 0.0663 ± 0.0026
378.35 K, 4320 kPa | 0.0524 ± 0.0022
378.36 K, 4310 kPa | 0.0506 ± 0.0022
378.36 K, 11376 kPa | 0.065 ± 0.003
378.37 K, 10981 kPa | 0.0646 ± 0.0025
378.38 K, 4300 kPa | 0.0488 ± 0.0021
378.4 K, 4290 kPa | 0.0472 ± 0.002
378.41 K, 4280 kPa | 0.0461 ± 0.002
378.43 K, 4260 kPa | 0.0438 ± 0.0019
378.45 K, 4240 kPa | 0.0422 ± 0.0019
378.47 K, 4220 kPa | 0.0408 ± 0.0019
378.49 K, 4200 kPa | 0.0395 ± 0.0018
378.5 K, 4180 kPa | 0.0385 ± 0.0017
378.53 K, 4140 kPa | 0.0368 ± 0.0017
378.53 K, 4150 kPa | 0.0371 ± 0.0017
378.54 K, 4130 kPa | 0.0364 ± 0.0017
378.59 K, 4860 kPa | 0.0565 ± 0.0023
378.59 K, 4900 kPa | 0.0565 ± 0.0023
378.63 K, 440 kPa | 0.02017 ± 0.0012
378.74 K, 180 kPa | 0.02012 ± 0.0012
378.81 K, 4120 kPa | 0.036 ± 0.002
378.83 K, 4090 kPa | 0.0351 ± 0.0016
378.85 K, 4050 kPa | 0.0339 ± 0.0016
378.9 K, 330 kPa | 0.02026 ± 0.0012
378.9 K, 3950 kPa | 0.0317 ± 0.0015
